Here are results for 25 compounds from ChEMBL document CHEMBL3091320, “6-(4-Pyridyl)pyrimidin-4(3H)-ones as CNS penetrant glycogen synthase kinase-3β inhibitors” (Bioorg Med Chem Lett, 2013).

The subject of one data set is Rattus norvegicus. Kind of data set: Reduction in tau protein phosphorylation in Wistar rat prefrontal cortex at 100 mg/kg, ip after 15 mins to 2 hrs by western blot analysis relative to vehicle-treated control. Format: functional. Also on record: scale not given: the % may be the effect or the level left. To be noted: route intraperitoneal. A general note: A western blot detects proteins with antibodies after separation by electrophoresis.

Data set [1] can be described thus: Permeability co-efficient in Wistar rat brain at 30 mg/kg, ip measured at 0.25 hrs. It counts as ADME, organism-based. Also on record: dose 30 mg/kg, route intraperitoneal.
In the next data set the test system is Brain. Kind of data set: Drug uptake in Wistar rat brain at 30 mg/kg, ip measured at 0.25 hrs. It counts as ADME, organism-based. Also on record: dose 30 mg/kg, route intraperitoneal. To be noted: in vivo.
Data set [2] concerns the target Glycogen synthase kinase-3 beta (Homo sapiens, UniProt P49841). Put plainly: Inhibition of human recombinant GSK3beta using prephosphorylated GS1 peptide as substrate after 1 hr by liquid scintillation spectrometry.
Data set [3] can be described thus: Clearance in rat microsomes. Format: ADME, Microsome.
Data set [4] in a line: Inhibition of CYP1A (unknown origin). Format: ADME, Homo sapiens.

Chain of Glycogen synthase kinase-3 beta (P49841 whole entry): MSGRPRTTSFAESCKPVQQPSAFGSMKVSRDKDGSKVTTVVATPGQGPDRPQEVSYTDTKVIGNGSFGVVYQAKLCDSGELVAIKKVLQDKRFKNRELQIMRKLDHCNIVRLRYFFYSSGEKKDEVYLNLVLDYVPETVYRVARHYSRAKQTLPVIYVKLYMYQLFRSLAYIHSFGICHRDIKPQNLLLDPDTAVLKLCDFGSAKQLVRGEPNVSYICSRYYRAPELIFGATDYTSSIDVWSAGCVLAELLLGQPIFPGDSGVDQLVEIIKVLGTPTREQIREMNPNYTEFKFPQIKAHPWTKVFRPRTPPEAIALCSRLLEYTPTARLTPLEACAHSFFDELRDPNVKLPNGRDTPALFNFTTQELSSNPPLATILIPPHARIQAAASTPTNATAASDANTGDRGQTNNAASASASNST

`Cn1c(NCC(=O)c2ccccc2)nc(-c2ccncc2)cc1=O` had an Activity in the data set with Rattus norvegicus of 24%. The compound also returned a Kp at 0.25 h in data set [1] of 1.15. Besides, the Drug uptake with Brain is 11.2 uM/ml. Also, the values for the IC50 in data set [2] and in data set [4] were 8.9 nM and 5700 nM, respectively. In data set [3], the CL is 172 µL/min/mg.
With `Cn1c(NCC(=O)c2ccc(F)cc2)nc(-c2ccncc2)cc1=O`, the IC50 (usually the concentration that inhibits the measured activity by half) was found to be 52 nM in data set [2] and 10900 nM in data set [4]. Besides, the CL in data set [3] was 166 µL/min/mg.
The matching figures for `Cn1c(NCC(=O)c2cccc(Cl)c2)nc(-c2ccncc2)cc1=O`: 13 nM, 670 nM and 262 µL/min/mg.
On to `Cc1cccc(C(=O)CNc2nc(-c3ccncc3)cc(=O)n2C)c1`, for which the figures for the concentration for half-maximal inhibition (IC50) in data set [2] and in data set [4] were 38 nM and 2200 nM, respectively. The CL in data set [3] stood at 262 µL/min/mg.
The corresponding values for `Cn1c(NCC(=O)c2cccc(C#N)c2)nc(-c2ccncc2)cc1=O` are 13 nM, more than 53300 nM and 133 µL/min/mg.
As for `Cc1nc(-c2ccncc2)cc(=O)[nH]1`, the IC50 in data set [2] was 3000 nM.
Same read-out and setting: the figure for `CCCCc1nc(-c2ccncc2)cc(=O)[nH]1` is 1300 nM; for `CC(C)c1nc(-c2ccncc2)cc(=O)[nH]1` it is 2100 nM.
Consider `CC(C)Cc1nc(-c2ccncc2)cc(=O)[nH]1`, for which the 50% inhibitory concentration (IC50) in data set [2] was 2400 nM.
For `O=c1cc(-c2ccncc2)nc(-c2ccccc2)[nH]1`, the IC50 in data set [2] amounted to 1800 nM.
Still for that read-out and setting: with `O=c1cc(-c2ccncc2)nc(Cc2ccccc2)[nH]1` the figure was 1300 nM; with `O=c1cc(-c2ccncc2)nc(CCc2ccccc2)[nH]1`, 8900 nM; with `O=c1cc(-c2ccncc2)nc(CCCc2ccccc2)[nH]1`, 500 nM.
Same read-out and setting: with `Cn1c(CCCc2ccccc2)nc(-c2ccncc2)cc1=O` the figure was 90 nM; with `CCn1c(CCCc2ccccc2)nc(-c2ccncc2)cc1=O`, 1900 nM; with `CCCn1c(CCCc2ccccc2)nc(-c2ccncc2)cc1=O`, 9800 nM.
Consider `O=c1cc(-c2ccncc2)nc(CCCc2ccccc2)n1Cc1ccccc1`, for which the IC50 in data set [2] was 2200 nM.
Take `Cn1c(OCCc2ccccc2)nc(-c2ccncc2)cc1=O`: in data set [2], the IC50 is 200 nM.
As to `Cn1c(NCCc2ccccc2)nc(-c2ccncc2)cc1=O`, the concentration for half-maximal inhibition (IC50) in data set [2] was found to be 70 nM.
With `Cn1c(NCCC2CCCCC2)nc(-c2ccncc2)cc1=O`, in data set [2], the concentration for half-maximal inhibition (IC50) was found to be 39 nM.
Consider `Cn1c(NCC(O)c2ccccc2)nc(-c2ccncc2)cc1=O` (configuration not stated), for which, in data set [2], the concentration for half-maximal inhibition (IC50) was 23 nM.
The same measure, in the same setting: with `Cn1c(N(CCCCN)CCc2ccccc2)nc(-c2ccncc2)cc1=O` the figure was 130 nM; with `Cn1c(N(CCCCCN)CCc2ccccc2)nc(-c2ccncc2)cc1=O`, 150 nM.
Take `Cn1c(NCC(=O)c2ccccc2F)nc(-c2ccncc2)cc1=O`: the 50% inhibitory concentration (IC50) in data set [2] amounted to 27 nM; in data set [4], 3800 nM. The same compound came in with a CL in data set [3] of 158 µL/min/mg.
Turning to `Cn1c(NCC(=O)c2cccc(F)c2)nc(-c2ccncc2)cc1=O`, the IC50 was found to be 25 nM in data set [2] and 4200 nM in data set [4]. Besides, the CL in data set [3] worked out at 207 µL/min/mg.
